Measured values from ChEMBL document CHEMBL5512683, “Discovery of Novel ERα and Aromatase Dual-Targeting PROTAC Degraders to Overcome Endocrine-Resistant Breast Cancer” (J Med Chem, 2024).
pIC50, pKi: −log10 of the molar value.

Legend:
Aromatase = biological target: T1, Aromatase (Homo sapiens, UniProt P11511); assay: Inhibition of recombinant human aromatase using ARO substrate/NADP+ mixture by fluorescence assay
T1 sequence (P11511 whole entry): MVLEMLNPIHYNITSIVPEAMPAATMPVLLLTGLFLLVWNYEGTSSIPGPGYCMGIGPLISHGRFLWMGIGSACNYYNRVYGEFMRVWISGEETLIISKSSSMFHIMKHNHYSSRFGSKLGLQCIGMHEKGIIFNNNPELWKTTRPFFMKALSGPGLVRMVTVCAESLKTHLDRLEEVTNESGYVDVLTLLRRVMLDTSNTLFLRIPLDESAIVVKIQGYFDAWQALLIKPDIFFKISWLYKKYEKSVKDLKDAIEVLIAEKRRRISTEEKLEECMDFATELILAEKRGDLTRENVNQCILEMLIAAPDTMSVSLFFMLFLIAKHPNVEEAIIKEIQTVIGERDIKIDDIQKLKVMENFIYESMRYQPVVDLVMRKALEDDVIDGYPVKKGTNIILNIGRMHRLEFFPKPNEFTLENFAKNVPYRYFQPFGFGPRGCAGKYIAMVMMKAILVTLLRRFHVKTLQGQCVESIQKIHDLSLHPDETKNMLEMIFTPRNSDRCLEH

MCF7 [1] = assay: Anti-proliferative activity against ERalpha positive human MCF7 cells incubated for 96 hrs by CCK8 assay; conditions: MCF7, 96 h
MCF7 [2] = assay: Antiproliferative activity against human resistant MCF7 cells harboring ERalpha D538G mutant at LBD assessed as cell viability incubated for 96 hrs by CCK8 assay; conditions: MCF7, 96 h
MCF7 [3] = assay: Antiproliferative activity against human resistant MCF7 cells harboring ERalpha Y537S mutant at LBD assessed as cell viability incubated for 96 hrs by CCK8 assay; conditions: MCF7, 96 h
MCF7 [4] = assay: Antiproliferative activity against human resistant MCF7 cells harboring EGFR assessed as cell viability incubated for 96 hrs by CCK8 assay; conditions: MCF7, 96 h
[5] = Anti-proliferative activity against human MCF-10A cells incubated for 96 hrs by CCK8 assay; assay type: toxicity, cell-based
Estrogen receptor beta = Estrogen receptor beta (Homo sapiens, UniProt Q92731); assay: Binding affinity to human ERbeta assessed as inhibition constant incubated under dark condition for 2 hrs by competitive fluorometric binding assay
[6] = biological target: von Hippel-Lindau disease tumor suppressor/Aromatase (Homo sapiens, UniProt P11511+P40337); assay: PROTAC activity at human ARO/VHL E3 ligase in human MCF-7 cells assessed as degradation of ARO at 1 uM incubated for 24 hrs by Western blot analysis; assay type: cell-based; conditions: mcf7, 24 h
Chain of von Hippel-Lindau disease tumor suppressor/Aromatase (P40337 whole entry, one chain of several): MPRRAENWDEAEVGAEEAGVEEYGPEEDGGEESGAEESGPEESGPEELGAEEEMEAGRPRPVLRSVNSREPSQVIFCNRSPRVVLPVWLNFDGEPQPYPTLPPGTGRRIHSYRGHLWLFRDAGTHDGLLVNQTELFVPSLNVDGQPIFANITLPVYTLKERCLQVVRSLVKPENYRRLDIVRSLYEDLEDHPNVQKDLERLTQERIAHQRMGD

Chain of Estrogen receptor beta (Q92731 whole entry): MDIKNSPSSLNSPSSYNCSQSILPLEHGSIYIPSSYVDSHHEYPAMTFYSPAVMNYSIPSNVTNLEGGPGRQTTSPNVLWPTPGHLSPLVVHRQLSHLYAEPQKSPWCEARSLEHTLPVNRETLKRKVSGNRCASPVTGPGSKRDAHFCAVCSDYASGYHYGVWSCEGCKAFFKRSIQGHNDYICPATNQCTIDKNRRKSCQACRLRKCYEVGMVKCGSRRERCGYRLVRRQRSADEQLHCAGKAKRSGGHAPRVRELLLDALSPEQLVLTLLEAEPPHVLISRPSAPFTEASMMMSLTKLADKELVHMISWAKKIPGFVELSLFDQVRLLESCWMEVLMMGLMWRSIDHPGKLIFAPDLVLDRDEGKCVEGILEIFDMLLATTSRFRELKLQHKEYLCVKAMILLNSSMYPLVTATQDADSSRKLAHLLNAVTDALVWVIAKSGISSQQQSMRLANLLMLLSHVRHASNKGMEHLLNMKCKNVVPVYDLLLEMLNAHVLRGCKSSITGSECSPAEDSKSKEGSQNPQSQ

Row | pIC50 (Aromatase) | pIC50 (MCF7 [1]) | pIC50 (MCF7 [2]) | pIC50 (MCF7 [3]) | pIC50 (MCF7 [4]) | pKi (Estrogen receptor beta) | Activity [6] | SMILES | IC50 at 96 h [5] [µM]
1 | < 4.00 | 6.48 | < 4.00 | 4.00 | < 4.00 | < 4.10 | Active | Cc1ncsc1-c1ccc([C@H](C)NC(=O)[C@@H]2C[C@@H](O)CN2C(=O)[C@@H](NC(=O)CCCCCCCCCOc2ccc(N(CC(F)(F)F)S(=O)(=O)C3CC4OC3C(c3ccc(-n5ccnc5)cc3)=C4c3ccc(O)cc3)cc2)C(C)(C)C)cc1 (stereo partly drawn) | > 100
2 | 6.49 | 6.22 | 4.00 | < 4.00 | 5.66 | – | Active | Cc1ncsc1-c1ccc([C@H](C)NC(=O)[C@@H]2C[C@@H](O)CN2C(=O)[C@@H](NC(=O)CCCCOc2ccc(N(CC(F)(F)F)S(=O)(=O)C3CC4OC3C(c3ccc(-n5ccnc5)cc3)=C4c3ccc(O)cc3)cc2)C(C)(C)C)cc1 (stereo partly drawn) | > 100
3 | < 4.00 | 6.25 | 6.16 | 5.40 | 6.20 | – | – | Cc1ncsc1-c1ccc([C@H](C)NC(=O)[C@@H]2C[C@@H](O)CN2C(=O)[C@@H](NC(=O)CCCCCOc2ccc(N(CC(F)(F)F)S(=O)(=O)C3CC4OC3C(c3ccc(-n5cncn5)cc3)=C4c3ccc(O)cc3)cc2)C(C)(C)C)cc1 (stereo partly drawn) | > 100
4 | 5.41 | 5.82 | < 4.00 | 4.82 | < 4.00 | < 4.10 | Active | Cc1ncsc1-c1ccc([C@H](C)NC(=O)[C@@H]2C[C@@H](O)CN2C(=O)[C@@H](NC(=O)COCCOc2ccc(N(CC(F)(F)F)S(=O)(=O)C3CC4OC3C(c3ccc(-n5ccnc5)cc3)=C4c3ccc(O)cc3)cc2)C(C)(C)C)cc1 (stereo partly drawn) | > 100
5 | 5.28 | 5.64 | 5.77 | < 4.00 | 5.26 | – | Active | Cc1ncsc1-c1ccc([C@H](C)NC(=O)[C@@H]2C[C@@H](O)CN2C(=O)[C@@H](NC(=O)CCCCCCOc2ccc(N(CC(F)(F)F)S(=O)(=O)C3CC4OC3C(c3ccc(-n5ccnc5)cc3)=C4c3ccc(O)cc3)cc2)C(C)(C)C)cc1 (stereo partly drawn) | > 100
6 | 6.19 | 5.62 | 4.59 | 4.00 | 4.77 | – | Active | Cc1ncsc1-c1ccc([C@H](C)NC(=O)[C@@H]2C[C@@H](O)CN2C(=O)[C@@H](NC(=O)COCCOCCOCCOCCOc2ccc(N(CC(F)(F)F)S(=O)(=O)C3CC4OC3C(c3ccc(-n5ccnc5)cc3)=C4c3ccc(O)cc3)cc2)C(C)(C)C)cc1 (stereo partly drawn) | > 100
7 | < 4.00 | 5.31 | < 4.00 | 4.66 | < 4.00 | – | Active | Cc1ncsc1-c1ccc([C@H](C)NC(=O)[C@@H]2C[C@@H](O)CN2C(=O)[C@@H](NC(=O)CCCCCCCCCCOc2ccc(N(CC(F)(F)F)S(=O)(=O)C3CC4OC3C(c3ccc(-n5ccnc5)cc3)=C4c3ccc(O)cc3)cc2)C(C)(C)C)cc1 (stereo partly drawn) | > 100
8 | < 4.00 | – | – | – | – | – | – | COc1ccc(N(CC(F)(F)F)S(=O)(=O)C2CC3OC2C(c2ccc(O)cc2)=C3c2ccc(O)cc2)cc1 (stereo not drawn) | –

Row | SMILES | pIC50 (Aromatase) | pIC50 (MCF7 [1]) | pIC50 (MCF7 [2]) | pIC50 (MCF7 [3]) | pIC50 (MCF7 [4]) | pKi (Estrogen receptor beta) | Activity [6] | IC50 at 96 h [5] [µM]
9 | CC/C(=C(\c1ccc(O)cc1)c1ccc(OCCN(C)C)cc1)c1ccccc1 [AFIMOXIFENE] | < 4.00 | – | – | – | – | – | – | 21
